Converted amounts (≈) assume the structure as drawn.
Experiments:
[1] = test system: calf thymus ctDNA; experiment: UV–Vis titration with ctDNA (Scatchard); type: binding; details: for Hypochromic effect H/%, ctDNA: UV–Vis titration, calculated by Scatchard equation; for Hypochromic effect H/%, ctDNA / log Ks, ctDNA: PBS, pH 7; for log Ks, ctDNA: binding constant, Scatchard
Method: (§1) Polynucleotides were purchased as follows: polyG–polyC, polyA–polyU (Sigma-Aldrich, St. Louis, MO), calf thymus ctDNA (Aldrich). Polynucleotides were dissolved in PBS buffer, I = 0.05 mol dm^−3, pH 7.0. The calf thymus ctDNA was additionally sonicated and filtered through a […] filter. The polynucleotide concentration was spectroscopically determined as the concentration of nucleobases.
(§2) All UV–Vis absorbance measurements were conducted on a Perkin Elmer Lambda 25 spectrophotometer (Perkin Elmer, Waltham, MA). A quartz cell with a 1 cm path length was used for all absorbance studies. Compound stock solutions were 1 mM. The DNA/RNA at increasing ratios was then titrated into the compound buffer solution (1.48 × 10^−5 mol dm^−3) and the corresponding absorption spectra were recorded under the same conditions. All data were graphed and analysed using Origin software version 9.0 (OriginLab Corporation, Northampton, MA). The stability constants (Ks) and [bound compound]/[polynucleotide phosphate] ratios (n) were calculated according to the Scatchard Equation[63] ^, [64]. Values for Ks and n given in Table 1 all have satisfying correlation coefficients (0.99).
(§3) The binding constants logKs and the density of the binding sites n were calculated using Scatchard plot analysis. In addition, the binding constants Ks for compounds 8b and 8e were calculated only for titration data taken at the r ≥ 0.1, because below that ratio changes in absorption maxima were too small for accurate calculation (ΔA ≤ 0.04) (Table 1). The binding constants Ks and ratios n obtained by processing UV–Vis titration data using the Scatchard equation are summarised in Table 1.

[2] = test system: polyA-polyU; experiment: UV–Vis titration with polyA-polyU (Scatchard); type: binding; details: PBS, pH 7; for Hypochromic effect H/%, polyA-polyU: UV–Vis titration, calculated by Scatchard equation; for log Ks, polyA-polyU: binding constant, Scatchard
Method: as §1, §2, §3

[3] = target: polyC-polyG; experiment: UV–Vis titration with polyC-polyG (Scatchard); type: binding; details: PBS, pH 7; for log Ks, polyC-polyG: binding constant, Scatchard; for Hypochromic effect H/%, polyC-polyG: UV–Vis titration, calculated by Scatchard equation
Method: as §1, §2, §3

[4] = test system: ctDNA; experiment: Thermal melting (ΔTm) of ctDNA; type: binding, calf; details: PBS, pH 7; for ΔTm, ctDNA, r = 0.3: r = [compound]/[polynucleotide] 0.3, error ±0.5 °C
Method: (§4) T m experiments were conducted with a Perkin Elmer Lambda 25 spectrophotometer in 1 cm quartz cuvettes. The absorbance of the DNA/RNA-compound complex was monitored at 260 nm as a function of temperature. The absorbance of the ligands was subtracted from every curve, and the absorbance scale was normalised. The ΔT m values were calculated by subtracting T m of the free nucleic acid from T m of the complex. Every reported ΔT m value was the average of at least two measurements. The error of ΔT m is ±0.5 °C. All data were graphed and analysed using Origin software version 9.0.
(§5) Denaturation experiments were carried out at different amounts of the compounds (r = 0.1, 0.3, 0.5, and 0.7 eq; r = [compound]/[polynucleotide]) with ctDNA and polyA-polyU.

[5] = test system: polyA-polyU; experiment: Thermal melting (ΔTm) of polyA-polyU; type: binding; details: for ΔTm, polyA-polyU, r = 0.1: PBS, pH 7; for ΔTm, polyA-polyU, r = 0.3 / ΔTm, polyA-polyU, r = 0.5: first melting midpoint
Method: as §4, §5

[6] = test system: S. aureus MRSA; experiment: Broth microdilution MIC, MRSA clinical strain; type: cell-based; details: Staphylococcus aureus, antibiotic-resistant clinical strain
Method: (§6) The compounds were evaluated for their in vitro anti-bacterial activity against Gram-positive bacteria: S. aureus (ATCC 25923), MRSA, methicillin-sensitive S. aureus (MSSA), E. faecalis, vancomycin-resistant E. faecium (VREF), and Gram-negative bacteria: E. coli (ATCC 25925), P. aeruginosa (ATCC 27853), A. baumannii (ATCC 19606) and ESBL-producing K. pneumoniae (ATCC 27736). Standard broth microdilution method as recommended in guidelines of Clinical and Laboratory Standards Institute[61] ^, [65] ^, [66] was applied and the minimum inhibitory concentration (MIC) of compounds was tested. In short, testing was performed in U-bottomed 96-well sterile plastic microdilution trays (Falcon 3077, Becton Dickinson Labware, Franklin Lakes, NJ) in cation (Ca^2+ and Mg^2+) adjusted Mueller–Hinton broth medium (Becton Dickinson and Co., Cockeysville, MD). All testings were performed in triplicate.

[7] = test system: S. aureus MSSA; experiment: Broth microdilution MIC, MSSA clinical strain; type: cell-based; details: Staphylococcus aureus
Method: as §6

[8] = test system: E. faecium VRE; experiment: Broth microdilution MIC, VRE clinical strain; type: cell-based; details: Enterococcus faecium
Method: as §6

[9] = test system: S. aureus ATCC 25923; experiment: Broth microdilution MIC, S. aureus ATCC 25923; type: cell-based; details: Staphylococcus aureus, ATCC25923; Table S2
Method: as §6
(§7) The in vitro anti-bacterial activity of 5-amidinobenzimidazoles 7a–7e, 8a–8e, and 9a–9e was tested against Gram-positive bacteria including S. aureus (ATCC 25923), Enterococcus faecalis (ATCC 29212), and Gram-negative bacteria including E. coli (ATCC 25925), K. pneumoniae (ATCC 700803), P. aeruginosa (ATCC 27853), and Acinetobacter baumannii (ATCC 19606).

[10] = test system: E. faecalis ATCC 29212; experiment: Broth microdilution MIC, E. faecalis ATCC 29212; type: cell-based; details: Enterococcus faecalis, ATCC29212; Table S2
Method: as §6, §7

[11] = test system: E. coli ATCC 25925; experiment: Broth microdilution MIC, E. coli ATCC 25925; type: cell-based; details: Escherichia coli, ATCC25925; Table S2
Method: as §6, §7

[12] = test system: K. pneumonia ATCC 700803; experiment: Broth microdilution MIC, K. pneumoniae ATCC 700803; type: cell-based; details: Klebsiella pneumoniae, ATCC700803; Table S2
Method: as §6, §7

[13] = test system: P. aeruginosa ATCC 27853; experiment: Broth microdilution MIC, P. aeruginosa ATCC 27853; type: cell-based; details: Pseudomonas aeruginosa, ATCC27853; Table S2
Method: as §6, §7

[14] = test system: A. baumannii ATCC 19606; experiment: Broth microdilution MIC, A. baumannii ATCC 19606; type: cell-based; details: Acinetobacter baumannii, ATCC19606; Table S2
Method: as §6, §7

[15] = test system: bloodstream form T. brucei (strain 221); experiment: Anti-trypanosomal screening, resazurin; type: cell-based; details: Trypanosoma brucei, mean of triplicate ± SEM
Method: Bloodstream form T. brucei (strain 221) were cultured in modified Iscove’s medium, as outlined[67] and trypanocidal assays were performed using 96-well microtitre plates. […] Resazurin was added after 48 h, the plates incubated for a further 16 h, and then read in a Spectramax plate reader (Molecular Devices Corporation, San Jose, CA). The data were analysed using GraphPad Prism (GraphPad, La Jolla, CA). Each drug concentration was tested in triplicate.

[16] = test system: polyA-polyU (RNA, polymer) A/U; experiment: UV-Vis titration, Scatchard; details: PBS, I = 0.05 M (Table 1 says I = 0.015 M), cations not specified, I = 0.015 M (Methods: 0.05 M), pH 7, per base
[17] = test system: polyG-polyC (polyC-polyG) (RNA, polymer) G/C; experiment: UV-Vis titration, Scatchard; details: PBS, I = 0.05 M (Table 1 says I = 0.015 M), cations not specified, I = 0.015 M (Methods: 0.05 M), pH 7, n fixed, per base
[18] = test system: polyA-polyU (RNA, polymer) A/U; experiment: UV melting at 260 nm; details: PBS, I = 0.05 M, cations not specified, pH 7, r = 0.3 [compound]/[polynucleotide], error ±0.5, per base

| SMILES | Hypochromic effect H/%, ctDNA [1] [%] | Hypochromic effect H/%, polyA-polyU [2] [%] | log Ks, polyA-polyU [2] | log Ks, polyC-polyG [3] | ΔTm, ctDNA, r = 0.5 [4] [°C] | ΔTm, ctDNA, r = 0.7 [4] [°C] | ΔTm, ctDNA, r = 0.3 [4] [°C] | ΔTm, polyA-polyU, r = 0.1 [5] [°C] | ΔTm, polyA-polyU, r = 0.3 [5] [°C] | ΔTm, polyA-polyU, r = 0.5 [5] [°C] | MIC [6] [µg/mL] | MIC [7] [µg/mL] | MIC [8] [µg/mL] | MIC [9] [µg/mL] | MIC [10] [µg/mL] | MIC [11] [µg/mL] | MIC [12] [µg/mL] | MIC [13] [µg/mL] | MIC [14] [µg/mL] | IC50 [15] [µM] | further results |
| --- | --- | --- | --- | --- | --- | --- | --- | --- | --- | --- | --- | --- | --- | --- | --- | --- | --- | --- | --- | --- | --- |
| CC(C)NC(=N)c1ccc2[nH]c(-c3ccc(OCc4cn(Cc5ccccc5)nn4)cc3)nc2c1 [Compound 8d] | 41.2 | 53.8 | 6.13 | 5.54 | 3.32 | 3.63 | 1.76 | 0.91 | 0.51 | 0.72 | 32 (≈ 68.7 µM) | 64 (≈ 137 µM) | 64 (≈ 137 µM) | 64 (≈ 137 µM) | 128 (≈ 275 µM) | > 256 | > 256 | > 256 | > 256 | 12.9 ± 0.2 | log Ks, ctDNA [1]: 5.93; IC90 [15]: 21.6 ± 0.4 µM; log Ks [16]: 6.13; log Ks [17]: 5.54 |
| CC(C)NC(=N)c1ccc2[nH]c(-c3ccc(OCc4cn(CSc5ccccc5)nn4)cc3)nc2c1.Cl.Cl [Compound 8e, N-isopropyl-2–(4-((1-(phenylthiomethyl)-1H-1,2,3-triazol-4-yl)methoxy)phenyl)-1H-benz[d]imidazole-5-carboximidamide dihydrochloride] | 44.2 | 47.2 | 5.96 | 7.20 | 1.72 | 1.71 | 2.22 | 0.52 | 0.23 | 0.26 | 8 | 64 | 64 | 64 | 256 | 256 | > 256 | > 256 | > 256 | 13.5 ± 0.8 | log Ks, ctDNA (range r ≥ 0.1) ([1]; footnote f: mixed binding mode, calculated in range r ≥ 0.1): 6.39; Hypochromic effect H/%, polyC-polyG [3]: 5.96%; IC90 [15]: 22.5 ± 0.3 µM; melting point: 152 to 154 °C |
| CC1(C)S[C@@H]2[C@H](NC(=O)[C@H](N)c3ccccc3)C(=O)N2[C@H]1C(=O)O [Ampicillin, ampicillin, reference compound] |  |  |  |  |  |  |  |  |  |  | 4 (≈ 11.4 µM) | 1 (≈ 2.86 µM) | 1 (≈ 2.86 µM) | 1 (≈ 2.86 µM) | 2 (≈ 5.72 µM) |  |  |  |  |  |  |
| CC(C)NC(=N)c1ccc2[nH]c(-c3ccc(OCc4cn(-c5ccccc5)nn4)cc3)nc2c1 [Compound 8a] | 41.0 | 46.5 | 5.87 | 6.17 | 3.94 | 4.25 | 3.35 | 0.32 | 0.64 | 1.11 | 8 (≈ 17.7 µM) | 128 (≈ 283 µM) | 128 (≈ 283 µM) | 128 (≈ 283 µM) | 256 (≈ 567 µM) | 256 (≈ 567 µM) | > 256 | > 256 | > 256 | 7.1 ± 0.7 | log Ks, ctDNA [1]: 6.17; Hypochromic effect H/%, polyC-polyG [3]: 5.86%; IC90 [15]: 16.7 ± 1.2 µM; ΔTm [18]: 0.64 °C; log Ks [16]: 5.87; log Ks [17]: 6.17 |

Source: publication PMC6127852 (Journal of Enzyme Inhibition and Medicinal Chemistry, 2018)
